Experiments:
[1] = target: T1, neutral endopeptidase enzyme (NEP) (Rattus norvegicus, UniProt P07861); assay: In vitro NEP-inhibitory activity (inhibition of formation of [^3 H]-Tyr-Gly-Gly from [^3 H][Leu^5 ]-enkephaline in kidney cortex membranes); format: biochemical, male Sprague-Dawley rats; details: rat kidney cortex membranes 5 μg/ml protein; [^3 H][Leu^5 ]-enkephaline 15 nM; Bestatin 1 mM; pH 7.4; 20 minutes at 30° C.
T1 construct: Membranes from kidney cortex were prepared according to the following procedure; from tissue; host or cells: kidney cortex membranes of male Sprague-Dawley rats
T1 sequence (P07861 1-750): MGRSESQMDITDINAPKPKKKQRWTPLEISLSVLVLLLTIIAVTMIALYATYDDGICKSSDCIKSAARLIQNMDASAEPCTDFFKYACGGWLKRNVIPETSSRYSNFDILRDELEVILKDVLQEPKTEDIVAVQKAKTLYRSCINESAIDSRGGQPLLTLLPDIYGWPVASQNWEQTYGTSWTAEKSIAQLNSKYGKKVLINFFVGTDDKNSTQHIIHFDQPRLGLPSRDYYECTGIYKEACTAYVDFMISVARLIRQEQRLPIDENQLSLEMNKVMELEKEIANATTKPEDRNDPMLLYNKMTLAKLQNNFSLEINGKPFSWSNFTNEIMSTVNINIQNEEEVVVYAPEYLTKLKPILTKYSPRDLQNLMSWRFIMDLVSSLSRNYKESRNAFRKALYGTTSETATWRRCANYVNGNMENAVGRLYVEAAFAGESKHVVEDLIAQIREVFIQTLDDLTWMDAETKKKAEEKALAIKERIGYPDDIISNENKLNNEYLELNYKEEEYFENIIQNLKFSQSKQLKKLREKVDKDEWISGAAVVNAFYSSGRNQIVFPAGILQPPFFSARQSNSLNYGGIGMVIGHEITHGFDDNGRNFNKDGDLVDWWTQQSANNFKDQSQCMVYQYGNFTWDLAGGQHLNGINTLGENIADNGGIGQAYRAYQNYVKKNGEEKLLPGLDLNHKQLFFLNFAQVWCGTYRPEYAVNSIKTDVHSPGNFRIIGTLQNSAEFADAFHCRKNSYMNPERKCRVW
Protocol: The NEP-inhibitory activity of the compounds of formula I was evaluated by means of in vitro tests as percentage of inhibition in the formation of [^3 H]-Tyr-Gly-Gly, a metabolite of [^3 H][Leu^5 ]-enkephaline(see example 26).
a) In vitro NEP-inhibitory activity
The NEP-inhibitory activity in vitro was evaluated according to the method reported in the literature by C. Llorens et al., Eur. J. Pharmacol., 69, (1981), 113-116.
Membranes from kidney cortex were prepared according to the following procedure.
By working at 0°-4° C. the kidneys were removed from killed male Sprague-Dawley rats weighing approximately 300 g.
Cortex was carefully dissected, finely minced and suspended in homogenization buffer (10 mM sodium phosphate pH 7.4 containing 1 mM MgCl2, 30 mM NaCl, 0.02% NaN3) 1:15 weight/volume.
The tissue was then homogenized for 30 seconds using an Ultra-Turrax homogenizer.
Approximately 10 ml of homogenate were layered over 10 ml of sucrose (41% weight/volume) and centrifuged at 31200 rpm for 30 minutes at 4° C. in a fixed angle rotor.
The membranes were collected from the buffer/sucrose interface, washed twice with 50 mM TRIS/HCl buffer (pH 7.4) and resuspended into the same buffer for storage.
The membranes were stored in small aliquots at -80° C. until use. The NEP-inhibitory activity was evaluated by using the following method.
Aliquots of the membrane suspension prepared as above described (concentration 5 μg/ml of proteins) were preincubated in the presence of an aminopeptidase inhibitor (Bestatin - 1 mM) for 10 minutes at 30° C.
[^3 H][Leu^5 ]-enkephaline (15 nM) and buffer TRIS/HCl pH 7.4 (50 mM) were added in order to obtain a final volume of 100 μl.
Incubation (20 minutes at 30° C.) was stopped by adding 0.1M HCl (100 μl).
The formation of the metabolite [^3 H]Tyr-Gly-Gly was quantified by chromatography on polystyrene columns (Porapak Q).
The percentage of inhibition of the metabolite formation in the membrane preparations treated with the compounds of formula I and the reference compounds in comparison to the untreated membrane preparations was expressed as IC50 value (nM).

[2] = target: T2, endothelin converting enzyme (ECE) (Oryctolagus cuniculus, UniProt A0A5F9CTJ8); assay: In vitro ECE-inhibitory activity (human Big endothelin-induced contraction of rabbit left saphenous artery rings; inhibition of endothelin formation); format: cell-based, Male New Zealand rabbits; details: human Big endothelin 3×10^-8 M, compound in contact 30 minutes, 37° C.
T2 construct: The left saphenous artery was removed and cleaned of the surrounding tissue; from tissue; host or cells: left saphenous artery rings of male New Zealand rabbits, with endothelium
T2 sequence (A0A5F9CTJ8 1-783): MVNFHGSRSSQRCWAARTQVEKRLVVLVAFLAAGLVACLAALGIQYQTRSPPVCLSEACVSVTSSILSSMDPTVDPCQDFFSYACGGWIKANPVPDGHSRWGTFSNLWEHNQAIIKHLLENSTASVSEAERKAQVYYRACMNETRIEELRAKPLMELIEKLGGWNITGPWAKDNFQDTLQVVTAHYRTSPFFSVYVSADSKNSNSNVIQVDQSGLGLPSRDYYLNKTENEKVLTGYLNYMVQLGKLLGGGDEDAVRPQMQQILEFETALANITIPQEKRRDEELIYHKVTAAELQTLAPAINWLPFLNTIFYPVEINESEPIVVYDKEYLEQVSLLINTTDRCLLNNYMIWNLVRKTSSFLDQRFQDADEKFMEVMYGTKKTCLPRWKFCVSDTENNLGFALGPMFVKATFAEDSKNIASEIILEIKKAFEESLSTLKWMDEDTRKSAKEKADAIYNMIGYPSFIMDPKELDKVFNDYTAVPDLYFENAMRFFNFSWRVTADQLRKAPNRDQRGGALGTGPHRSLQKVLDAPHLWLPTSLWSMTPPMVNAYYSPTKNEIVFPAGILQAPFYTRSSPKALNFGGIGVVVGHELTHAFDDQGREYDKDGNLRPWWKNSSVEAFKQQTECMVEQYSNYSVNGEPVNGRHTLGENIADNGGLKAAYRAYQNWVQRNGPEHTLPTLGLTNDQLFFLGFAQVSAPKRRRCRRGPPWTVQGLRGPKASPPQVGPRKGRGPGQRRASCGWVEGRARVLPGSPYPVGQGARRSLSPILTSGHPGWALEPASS
Protocol: b) In vitro ECE-inhibitory activity
The ECE-inhibitory activity in vitro was evaluated according to the method reported in the literature by M. Auget et al., Eur. J. Pharmacol., 224, (1992), 101-102.
Male New Zealand rabbits (2.5-3 Kg) were sacrificed with an excess of pentobarbital and blood was drawn.
The left saphenous artery was removed and cleaned of the surrounding tissue, cut into 2-3 mm length rings and suspended in 25 ml baths containing Krebs-Henseleit solution at 37° C. and oxygenated with O2 containing 5% CO2. This solution was composed of (mM); NaCl, 118; KCl, 4.7; CaCl2, 2.5; KH2 PO4, 1.2; MgSO4, 1.2; NaHCO3, […]; glucose, 11. The preparations were kept under tension and readjusted to 1 g during the equilibration period (1 hour).
After said period, the preparations were exposed to a submaximal concentration of norepinephrine 1 μM which was repeated every 30 minutes until the response was stable. A concentration of acetylcholine 10 μM on the contraction of norepinephrine verified the presence of the endothelium.
After 30 minutes from the last contraction due to norepinephrine, a concentration of human Big endothelin 3×10^-8 M was administered. After reaching the plateau the preparations were washed for 30 minutes and a concentration 1 μM of the compound to be tested or of its vehicle was administered keeping it in contact for 30 minutes, after that a concentration of Big endothelin 3×10^-8 M was administered again. The percentage of ECE-inhibition was expressed as IC50 value (nM).

IC50 [1] | IC50 [2] | Structure (SMILES)
5 nM | 3 nM | COc1cccc(CC(CS)C(=O)Nc2c[nH]c(C(=O)O)c2)c1 (stereo not drawn) [compound 13, N-(2-carboxy-4-pyrrolyl)-3-mercapto-2-(3-methoxybenzyl)-propanamide]
8.8 nM |  | O=C(O)Cc1csc(NC(=O)C(CS)Cc2ccccc2)n1 (stereo not drawn) [R-2, N-(4-carboxymethyl-2-thiazolyl)-3-mercapto-2-benzyl-propanamide, reference compound]
12.6 nM | 1 nM | O=C(O)c1cc(NC(=O)C(CS)Cc2cccnc2)cs1 (stereo not drawn) [compound 6, N-(2-carboxy-4-thienyl)-3-mercapto-2-(3-pyridylmethyl)-propanamide]
2.1 nM | 2 nM | O=C(O)c1cc(NC(=O)C(CS)Cc2ccccc2)c[nH]1 (stereo not drawn) [compound 4, N-(2-carboxy-4-pyrrolyl)-3-mercapto-2-benzyl-propanamide]
1.5 nM | 2 nM | O=C(O)c1cc(NC(=O)C(CS)Cc2ccccc2)cs1 (stereo not drawn) [compound 2, N-(2-carboxy-4-thienyl)-3-mercapto-2-benzyl-propanamide]
2.7 nM | 4 nM | O=C(O)c1cc(NC(=O)C(CS)Cc2ccc(Cl)cc2)c[nH]1 (stereo not drawn) [compound 9, N-(2-carboxy-4-pyrrolyl)-2-(4-chlorobenzyl)-3-mercapto-propanamide]
3.12 nM |  | O=C(O)c1cccc(NC(=O)C(CS)Cc2ccccc2)c1 (stereo not drawn) [R-1, N-(3-carboxyphenyl)-3-mercapto-2-benzyl-propanamide, reference compound]
